From US8574856B2, “Methods for determining the efficiency of a therapeutic” (Companion Diagnostics Inc., priority 2010, dated 2013)
“And” between values parts separate entries of the source, which are not always exact repeats. Equal values may be shown once.

Legend:
peroxidase = assay: Peroxidase assay in saliva (Amplex Red); assay type: biochemical; conditions: 500 ppm; pooled or unpooled saliva; 30 minutes; FIGS. 30-33
Experimental: To determine the effect of various GRAS compounds as inhibitors of peroxidase activity, a standard assay using Amplex® Red (Life Technologies), which releases a fluorescent oxidation product.
The test compounds, such as GRAS materials or cocktails of same, were prepared at a concentration of 500 ppm in distilled water. For the assay, 50 μl samples of test compounds were mixed with 20-30 μl of saliva (either “pooled” or “unpooled”) prior to the addition of Amplex® Red. […] Reactions were allowed to run for 30 minutes during these assays.

galactose oxidase = conditions: dilute (3.5%) saliva; FIG. 17
lysozyme = molecular target: T1, lysozyme (Homo sapiens, UniProt P61626); assay: Lysozyme inhibition saliva screening, dilute (3.5%) saliva; assay type: biochemical; conditions: FIG. 16
T1 sequence (P61626 19-148): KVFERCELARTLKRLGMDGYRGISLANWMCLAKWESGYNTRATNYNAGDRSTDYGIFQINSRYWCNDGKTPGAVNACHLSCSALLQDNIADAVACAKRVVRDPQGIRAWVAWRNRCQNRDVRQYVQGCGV
Excerpt: Further details of these five compounds may also be seen in Table 5.

α-amylase [1] = molecular target: T2, α-amylase (Homo sapiens, UniProt P0DUB6); conditions: 100% saliva samples; FIG. 15
T2 sequence (P0DUB6 16-511): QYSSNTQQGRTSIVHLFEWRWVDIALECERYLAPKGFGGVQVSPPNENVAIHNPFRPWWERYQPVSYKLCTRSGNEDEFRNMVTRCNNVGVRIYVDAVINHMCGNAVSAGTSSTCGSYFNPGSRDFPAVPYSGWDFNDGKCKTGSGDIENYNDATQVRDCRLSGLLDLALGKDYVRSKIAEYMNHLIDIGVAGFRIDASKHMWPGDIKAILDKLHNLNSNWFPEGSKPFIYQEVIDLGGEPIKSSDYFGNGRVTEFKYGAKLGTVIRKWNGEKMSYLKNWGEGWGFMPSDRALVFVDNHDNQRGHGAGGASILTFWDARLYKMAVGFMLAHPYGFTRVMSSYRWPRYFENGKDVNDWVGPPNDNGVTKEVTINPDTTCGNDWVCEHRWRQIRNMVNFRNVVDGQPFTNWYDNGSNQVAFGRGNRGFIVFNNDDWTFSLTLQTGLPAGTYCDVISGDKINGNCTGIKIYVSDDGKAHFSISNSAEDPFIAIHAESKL
Excerpt: Enzymatic activity of α-amylase on the substrate yields 2-chloro-p-nitrophenol, which can be measured spectrophotometrically at 405 nm. The amount of α-amylase activity present in the experimental sample is directly proportional to the increase in absorbance at 405 nm.

α-amylase [2] = molecular target: T2, α-amylase; assay: α-Amylase inhibition saliva screening, dilute (3.5%) saliva; assay type: biochemical; conditions: for absorbance at 405 nm, Ave / absorbance at 405 nm, single readings: test compound prepared at 5,000 ppm, 37° C.; for α-Amylase Inhibitor Activity: dilute (3.5%) saliva, FIG. 14
Excerpt: Further details of these five compounds may also be seen in Table 4.

| Compound | peroxidase inhibition (peroxidase) | Galactose Oxidase Inhibitor Activity (galactose oxidase) | Lysozyme Inhibitor Activity (lysozyme) | inhibition of α-Amylase (α-amylase [1]) | absorbance at 405 nm, Ave (α-amylase [2]; 0 min) | absorbance at 405 nm, Ave (α-amylase [2]; 5 min) | absorbance at 405 nm, Ave (α-amylase [2]; 15 min) | α-Amylase Inhibitor Activity (α-amylase [2]) | also measured |
| --- | --- | --- | --- | --- | --- | --- | --- | --- | --- |
| Cn1c(=O)c2c(ncn2C)n(C)c1=O [CDI-33, Caffeine] | showed significant peroxidase inhibition capabilities | – | – | – | – | – | – | – | – |
| COc1ccc(O)c(C(C)(C)C)c1 [CDI-39, 3-tert--butyl-hydroxyanisole] | showed significant peroxidase inhibition capabilities | shown to have Galactose Oxidase Inhibitor Activity | – | – | – | – | – | – | – |
| O=C(O)c1ccccc1 [CDI-40, Benzoic acid] | – | shown to have Galactose Oxidase Inhibitor Activity | shown to have Lysozyme Inhibitor Activity | – | – | – | – | – | – |
| CC(=O)O [CDI-47, Acetic acid] | – | shown to have Galactose Oxidase Inhibitor Activity | shown to have Lysozyme Inhibitor Activity | – | – | – | – | – | – |
| Aluminum potassium sulfate dodecahydrate [CDI-42] | showed significant peroxidase inhibition capabilities | shown to have Galactose Oxidase Inhibitor Activity | – | shown to inhibit α-Amylase | 0.92 | 1.85 | 2.29 | shown to have α-Amylase Inhibitor Activity | absorbance at 405 nm, single readings (α-amylase [2]; 0 min): 0.80 and 0.90 and 0.84; absorbance at 405 nm, single readings (α-amylase [2]; 5 min): 1.80 |
| Aluminum sulfate hydrate [CDI-34] | – | – | – | shown to inhibit α-Amylase | 0.40 | 0.50 | 0.56 | shown to have α-Amylase Inhibitor Activity | absorbance at 405 nm, single readings (α-amylase [2]; 0 min, sulfate hydrate): 0.40 and 0.36 and 0.45; absorbance at 405 nm, single readings (α-amylase [2]; 5 min, sulfate hydrate): 0.49 and 0.50 and 0.52; absorbance at 405 nm, single readings (α-amylase [2]; 15 min, sulfate hydrate): 0.53 and 0.61 and 0.54 and 0.56 |
